Measured values taken from US7648824B2, “Method of sequencing DNA” (Qiagen GmbH, priority 2000, dated 2010).
“Also recorded” adds a separate entry of the source.

How the values were obtained:
[1] = tested on: Enzyme mix (DNA polymerase, ATP-sulphurylase, apyrase and luciferase); assay: Preincubation of Pyrosequencing reaction mixture with nucleotide, then PPi-based sequencing with ELIDA detection; format: biochemical; details: for inhibition of the sequencing reaction: preincubation with 5, 10 or 20 μl nucleotide for 10 minutes at room temperature without template, compared with 0 μl; for effect of preincubation on the sequencing reaction: similar experiment, nucleotides from prototype PSQ 96 SNP Reagent kit, 2 pmol template, control 1×TE, results not shown
Protocol: (§1) In this example, the inhibitory effect of dATPαS on a PPi-based sequencing reaction with ELIDA detection (known as Pyrosequencing) was investigated by preincubating the reaction mixture in the absence of template with varying amounts of the normal (i.e. racemic) dATPαS (containing both Rp and Sp isomers), or the pure Sp isomer of dATPαS. After preincubation, template was added and a normal “Pyrosequencing™”, reaction was carried out.
(§2) The “normal” dATPαS was taken from the PSQ 96 SNP Reagent kit supplied by Pyrosequencing AB (Uppsala, SE). The pure Rp and Sp isomers were purchased from Biolog Life Science (Bremen, Germany). The reaction mixture also included Enzyme mix (DNA polymerase, ATP-sulphurylase, apyrase and luciferase) and Substrate mix (luciferin and APS), from the PSQ 96 SNP Reagent kit supplied by Pyrosequencing AB. The template was an oligonucleotide (interactiva, Ulm, Germany) from which the following sequence could be read after annealing of a sequencing primer: […].
The pure isomer samples were diluted to the same concentration as the dATPαS in the PSQ 96 SNP Reagent kit. For preincubation, 0, 5, 10 or 20 μl of each A-sample (normal dATPαS or the Rp or Sp isomer) was added to a mixture containing 5 μl Enzyme mix, 5 μl Substrate mix in a total volume of 45 μl. The reaction was carried out in the 96 well plate delivered with the PSQ 96 SNP Reagent kit. The reaction was incubated at room temperature, in the dark for 10 minutes. After this, […] in 5 μl annealed oligonucleotide template was added to each well and the plate was transferred […] the PSQ 96 instrument, where a normal “Pyrosequencing™” reaction was carried out (omitting addition of Enzyme and Substrate mixes).
A similar experiment was also performed where the preincubation was carried out comparing “normal” dATPαS with dCTP, dGTP or dTTP, all from a prototype to the PSQ 96 SNP Reagent kit. As control, only 1×TE (dilution buffer for the dNTPs) was added. The template was the same as above, but 2 pmol were added to each well.

luciferase [2] = molecular target: T1, luciferase (Photinus pyralis, UniProt P08659); details: literature report, Ford et al., 1998; cited from earlier work
T1 construct: purchased BioThema, Dalaro, Sweden

luciferase [3] = molecular target: T1, luciferase; assay: Preincubation of Pyrosequencing reaction mixture with nucleotide, signal intensity; format: biochemical; details: preincubation with 5, 10 or 20 μl nucleotide for 10 minutes, compared with 0 μl
Protocol: as §1, §2
(§3) The pure isomer samples were diluted to the same concentration as the dATPαS in the PSQ 96 SNP Reagent kit. For preincubation, 0, 5, 10 or 20 μl of each A-sample (normal dATPαS or the Rp or Sp isomer) was added to a mixture containing 5 μl Enzyme mix, 5 μl Substrate mix in a total volume of 45 μl. The reaction was carried out in the 96 well plate delivered with the PSQ 96 SNP Reagent kit. […]

apyrase [4] = molecular target: T2, apyrase (Solanum tuberosum, UniProt P80595); assay: Preincubation of Pyrosequencing reaction mixture with nucleotide, signal width; format: biochemical; details: preincubation with 5, 10 or 20 μl nucleotide for 10 minutes, compared with 0 μl
T2 construct: purchased Sigma Chemical Co., USA
T2 sequence (P80595 1-454): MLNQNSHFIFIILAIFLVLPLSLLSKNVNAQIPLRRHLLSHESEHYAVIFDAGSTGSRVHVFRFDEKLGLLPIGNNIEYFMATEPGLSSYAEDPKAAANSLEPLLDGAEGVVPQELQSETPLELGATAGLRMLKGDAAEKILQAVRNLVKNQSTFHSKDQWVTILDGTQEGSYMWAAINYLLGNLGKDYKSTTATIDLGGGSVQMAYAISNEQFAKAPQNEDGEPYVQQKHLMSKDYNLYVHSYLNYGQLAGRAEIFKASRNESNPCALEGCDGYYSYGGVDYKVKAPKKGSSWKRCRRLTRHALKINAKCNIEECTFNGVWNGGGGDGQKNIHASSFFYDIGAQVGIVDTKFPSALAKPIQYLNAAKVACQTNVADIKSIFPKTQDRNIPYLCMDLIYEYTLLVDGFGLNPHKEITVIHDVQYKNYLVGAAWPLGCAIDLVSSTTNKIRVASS
Protocol: as §1, §2, §3

luciferase [5] = molecular target: T1, luciferase; assay: Model system simulating PPi-based sequencing: nucleotide plus ATP added to luciferase/apyrase/substrate mixture, light signal height; format: biochemical; details: for luciferase activity (signal intensity, height of ascending curve): 50 additions of nucleotide + 2 μM ATP in 50 minutes, 100 ng luciferase, 50 mU apyrase, room temperature
Protocol: (§4) In this Example a series of 5 experiments were carried out to examine the inhibitory effect of each of the 5 nucleotides (dATP, dATPαS, dCTP, dGTP and dTTP) on the enzymes apyrase and luciferase. A model system was used which simulated the effects of these enzymes in a PPi-based sequencing reaction. Each nucleotide was added to the luciferase/apyrase/substrate mixture, along with ATP (to provide a substrate for luciferase), and the effect of each nucleotide addition on the enzymes was monitored by observing the light signals generated from the luciferase reaction.
(§5) The reactions were performed at room temperature in a volume of 50 μl on an automated prototype Pyrosequencer instrument (kindly supplied by Pyrosequencing AB, Uppsala, Sweden). The reaction mixture contained: 50 mU apyrase (Sigma Chemical Co., USA), 100 ng purified luciferase (BioThema, Dalaro, Sweden), 0.1 M Tris-acetate (pH 7.75), 0.5 mM EDTA, 5 mM magnesium acetate, 0.1% bovine serum albumin, 1 mM dithiothreitol, 0.4 mg/ml polyvinylpyrrolidone (360 000), and 100 μg/ml D-luciferin (BioThema). An ATP concentration of 2 μM was added to different nucleotides (dATP, dATPαS, dCTP, dGTP and dTTP), as shown in FIGS. 1 to 5 to follow the activity of luciferase and apyrase. For investigation of the effect of Shrimp Alkaline Phosphatase (Amersham Pharmacia Biotech, Uppsala, Sweden), two units of this enzyme were added to the reaction mixture—see further below. In total, 50 additions of nucleotide and ATP mixture were performed in 50 minutes. The output of light resulting from nucleotide incorporation was detected by a CCD-camera. The data was obtained in Excel format.

apyrase [6] = molecular target: T2, apyrase; assay: Model system simulating PPi-based sequencing: nucleotide plus ATP added to luciferase/apyrase/substrate mixture, slope of descending curve / signal width; format: biochemical; details: for apyrase activity (slope of descending curve, signal width): 50 additions of nucleotide + 2 μM ATP in 50 minutes, 100 ng luciferase, 50 mU apyrase, room temperature
Protocol: as §4, §5

[7] = 0.7 mM dATPαS + 2 μM ATP, 50 cycles, 2 U alkaline phosphatase added

T1 sequence (P08659 whole entry): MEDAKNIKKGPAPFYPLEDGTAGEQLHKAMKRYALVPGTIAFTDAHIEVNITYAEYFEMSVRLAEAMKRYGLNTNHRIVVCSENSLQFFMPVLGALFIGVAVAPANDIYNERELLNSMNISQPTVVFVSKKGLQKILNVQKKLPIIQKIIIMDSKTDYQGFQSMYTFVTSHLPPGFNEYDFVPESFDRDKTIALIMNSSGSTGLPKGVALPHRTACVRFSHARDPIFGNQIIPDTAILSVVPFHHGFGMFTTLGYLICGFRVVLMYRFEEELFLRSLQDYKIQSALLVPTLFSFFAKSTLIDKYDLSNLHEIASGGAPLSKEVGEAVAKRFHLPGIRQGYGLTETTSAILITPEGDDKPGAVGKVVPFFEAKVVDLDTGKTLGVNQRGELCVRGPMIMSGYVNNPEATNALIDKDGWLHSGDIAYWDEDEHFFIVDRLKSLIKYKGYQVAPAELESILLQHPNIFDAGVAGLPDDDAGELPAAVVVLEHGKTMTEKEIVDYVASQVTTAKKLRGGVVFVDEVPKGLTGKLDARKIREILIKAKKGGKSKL

Structure (SMILES) | inhibition of the sequencing reaction [1] | luciferase activity (signal intensity, height of ascending curve) (luciferase [5]) | effect of preincubation on the sequencing reaction [1] | apyrase activity (slope of descending curve, signal width) (apyrase [6]) | further results
Nc1ncnc2c1ncn2[C@H]1C[C@H](O)[C@@H](COP(O)(=S)OP(=O)(O)OP(=O)(O)O)O1 (single isomer, unassigned) [Sp isomer] | significantly reduced | – | – | – | –
Nc1ncnc2c1ncn2[C@H]1C[C@H](O)[C@@H](COP(=O)(O)O)O1 [dAMP] | – | – | – | – | inhibition of luciferase (luciferase [2]): inhibits luciferase
Nc1ncnc2c1ncn2[C@H]1C[C@H](O)[C@@H](COP(O)(=S)OP(=O)(O)OP(=O)(O)O)O1 (single isomer, unassigned) [Rp isomer] | Even more pronounced inhibition; also recorded: severe effect on all enzymes involved in the ELIDA detection | – | – | – | luciferase inhibition (signal intensity, peak height) (luciferase [3]): signal intensity is decreased; apyrase inhibition (signal width, signal definition) (apyrase [4]): increased signal width
Cc1cn([C@H]2C[C@H](O)[C@@H](COP(=O)(O)OP(=O)(O)OP(=O)(O)O)O2)c(=O)[nH]c1=O [dTTP, deoxythymidine triphosphate] | – | do not inhibit luciferase or apyrase | no negative effect | do not inhibit luciferase or apyrase | –
Nc1ncnc2c1ncn2[C@H]1C[C@H](O)[C@@H](COP(O)(=S)OP(=O)(O)OP(=O)(O)O)O1 (stereo partly drawn) [dATPαS, deoxyadenosine α-thiotriphosphate] | progressively severe inhibition | relatively linear decrease in signal intensity | severe negative effect | drastically inhibited in later cycles | luciferase inhibition (signal intensity, peak height) (luciferase [3]): Some loss of signal intensity; luciferase activity (signal intensity) in the presence of alkaline phosphatase (luciferase [5]; [7]): no inhibition of luciferase; decrease in signal intensity after 50 cycles, less than that obtained with dATP (luciferase [5]; 0.7 mM nucleotide + 2 μM ATP, after 50 cycles, compared with dATP (FIG. 1)): 50%; apyrase inhibition (signal width, signal definition) (apyrase [4]): apyrase inhibition is particularly occurring; apyrase activity (signal width) in the presence of alkaline phosphatase (apyrase [6]; [7]): lack of apyrase inhibition
Nc1ccn([C@H]2C[C@H](O)[C@@H](COP(=O)(O)OP(=O)(O)OP(=O)(O)O)O2)c(=O)n1 [dCTP, deoxycytidine triphosphate] | – | do not inhibit luciferase or apyrase | no negative effect | do not inhibit luciferase or apyrase | –
Nc1ncnc2c1ncn2[C@H]1C[C@H](O)[C@@H](COP(=O)(O)OP(=O)(O)OP(=O)(O)O)O1 [dATP, deoxyadenosine triphosphate] | – | relatively linear decrease in signal intensity | – | – | –
Nc1nc2c(ncn2[C@H]2C[C@H](O)[C@@H](COP(=O)(O)OP(=O)(O)OP(=O)(O)O)O2)c(=O)[nH]1 [dGTP, deoxyguanosine triphosphate] | – | do not inhibit luciferase or apyrase | no negative effect | do not inhibit luciferase or apyrase | –
